Reference: patent publication US20230293565A1, “USE OF WNT/BETA-CATENIN PATHWAY INHIBITORS TO BLOCK REPLICATION OF SARS-COV-2 AND OTHER PATHOGENIC VIRUSES” (THE GOVERNORS OF THE UNIVERSITY OF ALBERTA, priority 2020, published 2023)
Entries after “also recorded” stand apart in the source; their conditions may differ. Like-named read-outs stand apart in the source and are kept apart here.

Experiments:
[1] = tested on: SARS-CoV-2 (CANADA/VIDO01/2020 strain); format: cell-based
[2] = tested on: type III (IFNλ2) interferon; format: cell-based, human; details: A549 treated 24 h, Sendai virus 8 and 16 hours
HCOV-NL63 = HCOV-NL63 plaque assay in Calu3 cells; format: cell-based; details: Calu3 treated 24 h, MOI 0.5, 24 h
Protocol: (§1) FIG. 16. Effect of Wnt/β-catenin inhibitors on other human coronaviruses (HCOVs). Calu3 cells were treated with the indicated concentrations of Wnt/β-catenin inhibitors for 24 hours and then infected with HCOVs NL63 or 229E MOI of 0.5). Twenty-four hours later, media were collected and subjected to plaque assay to determine viral titers. Average titers from there independent experiments are shown.
(§2) Because Wnt/β-catenin inhibitors enhance the IFN response, we hypothesized that these drugs would be effective against other human coronaviruses and potentially other pathogenic RNA viruses such as flaviviruses and alphaviruses. To test this theory, Calu-3 and A549 cells treated with Wnt/β-catenin inhibitors or DMSO for 24 hours were infected with two different seasonal human coronavirus HCOV-NL63 and HCOV-229E for 24 hours or Zika virus or Mayaro virus for 48 and 24 hours respectively.

HCOV-229E = HCOV-229E plaque assay in Calu3 cells; format: cell-based
Protocol: as §1, §2

Vero cells = format: cell-based, African green monkey; details: 1 μM (Pyrvinium 100 nM), 48 hours
Zika virus (ZIKV) = test: Zika virus plaque assay and qRT-PCR in A549 cells; format: cell-based; details: A549, 1 μM, 24 h pre-treatment, 0.1 MOI
Protocol: FIG. 17. Wnt/β-catenin inhibitors reduce replication of other RNA viruses. A549 cells were treated with Wnt/β-catenin inhibitors (1 μM) or DMSO alone for 24 hours, after which the cells were infected with 0.1 MOI of Zika virus (ZIKV) or Mayaro virus (MAYV). Forty-eight hours later, virus-containing media were subjected to plaque assays and total RNA extracted from cells was subjected to qRT-PCR to determine relative levels of viral RNA. Average viral titers (A,C) and genomic RNA levels (B, D) from drug-treated cells from 3 independent experiments are shown. Error bars represent standard error of the mean. *, P<0.05; **, P<0.01; N.S. (not significant).
as §2

Mayaro virus (MAYV) = format: cell-based; details: A549, 1 μM, 24 h pre-treatment, 0.1 MOI

Compound | SARS-CoV-2 replication, drug added 6-hours post-infection (in words) [1] | induction of type III IFN (IFNλ2 transcripts) [2] | SARS-CoV-2 replication, drug added 12-hours post-infection (in words) [1] | titers of HCOV-NL63 (HCOV-NL63) | titers of HCOV-229E (HCOV-229E) | density of peroxisomes in Vero cells (Vero cells) | titers of HCOV-229E (HCOV-229E; Calu3 treated 24 h, MOI 0.5, 24 h) | replication of Zika virus (Zika virus (ZIKV)) | replication of Mayaro virus (Mayaro virus (MAYV))
Cc1cc(-c2ncc(CC(=O)Nc3ccc(-c4cnccn4)cn3)cc2C)ccn1 [LGK-974] | effectively block | – | – | – | – | – | – | – | –
iCRT-14 | – | much more dramatic effects | – | – | – | – | – | – | –
Cc1cc(/C=C/c2ccc3cc(N(C)C)ccc3[n+]2C)c(C)n1-c1ccccc1 [Pyrvinium] | effectively block; also recorded: reduce SARS-CoV-2 replication | much more dramatic effects | reduce SARS-CoV-2 replication | significantly reduced | significantly reduced | – | – | – | –
O=C([O-])CCN1C(=O)/C(=C/c2ccc(-c3ccc([N+](=O)[O-])cc3)o2)SC1=S.[K+] [KYA1797K] | effectively block; also recorded: reduce SARS-CoV-2 replication | – | reduce SARS-CoV-2 replication | significantly reduced | – | increases peroxisome density | significantly reduced | most potent | most potent
